Holding throughout (format): cell-based, mouse
Test [1] has as its system HT22 cells. The test can be described thus: In vitro neuroprotective activity against glutamate-induced cell death (MTS cell viability). Particulars: HT22 cells; for EC50: 24 hrs, MTS, concentration producing 50% protection, read-out: Protection PC50. As for the experimental part:
The HT22 neuronal cell line is a subclone of HT4, derived from the mouse hippocampus (Morimoto and Koshland, 1990). […] HT22 cells were used. The cells were grown in Dulbecco's Modified Eagle's medium (DMEM/high glucose) supplemented with 10% fetal bovine serum (Hyclone) and 5 mL Antibiotic-Antimycotic (Amphotericin B, Penicillin, and Streptomycin; Invitrogen) at 37° C. in 5% CO2.
(§1) Cell viability was assessed by the ability of the viable cells to metabolize 3-(4,5-dimethylthiazol-2-yl)-5-(3-carboxymethoxyphenyl)-2(4-sulfophenyl)2-H-tetrazolium, inner salt (MTS), as described previously (Cory et al., 1991). The metabolism of tetrazolium salts is often used to measure cellular proliferation, but in the system used here, it has been previously shown to correlate well with cell viability as determined by trypan blue exclusion and colony-forming assays (Davis and Maher, 1994). Briefly, HT-22 cells were seeded onto 96-well plates at 5.0×10^3 cells per well in 75 μL of medium and maintained at 37° C. in 5% CO2 overnight prior to the initiation of experimental treatments. For glutamate toxicity testing, cells were subsequently treated with 25 μL of medium containing glutamate (monosodium glutamate, Sigma, 1 M stock concentration in media, to achieve a final concentration of 10 mM) plus inhibitors (stock in DMSO) and maintained at 37° C. in 5% CO2. For t-BuOOH toxicity testing, cells were subsequently treated with 25 μL of medium containing t-BuOOH (Sigma, 10 mM stock concentration, to achieve a final concentration of 50 μM) plus inhibitors (stock in DMSO) and maintained at 37° C. in 5% CO2 for 3 hours, after which the media was removed, cells washed gently with HBSS, the media replaced with standard culture media, and the cells returned to incubation at 37° C. in 5% CO2. For both glutamate and t-BuOOH treatments, 10 μl of MTS solution was added to each well 24 hrs after initial treatment, and the cells were maintained in growth medium for 2 h at 37° C. Absorbance at 490 nm was subsequently measured by a SpectraMax 190 plate reader (Molecular Devices). The growth medium without cells in the presence of MTS solution was used as solution background and untreated cells were considered the controls. Cell viability was calculated as a percentage compared with untreated controls. EC50 determinations were based on 12-point titrations using GraphPad Prism, and each experiment was repeated at least four times. Morphology of HT22 cells following treatments was determined by phase-contrast microscopy. Digital images of cells grown on cell culture plates were captured at 10× magnification.
The neuroprotective properties of VK and its derivatives were estimated through their protective effects against cell death in mouse neuronal HT22 cells induced by exposure to high levels of glutamate, which recapitulates a hallmark of the extracellular environment found in several neurodegenerative diseases and CNS injuries and is a well established model of neuronal oxidative stress. This investigation began by comparing the relative abilities of the two predominant naturally occurring forms of VK, VK1 and VK2, to prevent oxidative cell death. […] Several 1,4-naphthoquinones with various substitutions at the 2′ and 3′ positions were tested to determine the minimum structural requirement of the system and what the optimum scaffold for future developmental efforts and biological validation would be (FIG. 1B and Table 1). […] Substitution by a single methyl group at the 2′ position (VK3) improves the compound's ability to protect against cell death. Various other simple substituents at the 2′ and 3′ positions give the naphthoquinone structure the ability to prevent oxidative cell death at nanomolar concentrations (Table 1 and FIG. 16).

In test [2] the test system is HT22 cells. The test can be described thus: t-BuOOH toxicity protection (MTS cell viability). To be noted: HT22, 50 μM t-BuOOH. On the procedure:
as §1
In light of the findings that the protection against glutamate induced cell death provided by VK2, 2q, and 2j, are at least partially mediated by the attenuation of the increased production of endogenous ROS, the inventors also examined the effects of these compounds on tert-butylhydroperoxide (t-BuOOH) induced cell death. t-BuOOH is a short chain analog of the lipid hydroperoxides formed from peroxidation reactions during oxidative stress that is cytotoxic to cells (Lemasters and Nieminen, 1997). […] It is well documented that cells undergo rapid and extensive fragmentation in the early stages of cell death (Bossy-Wetzel et al., 2003; Frank et al., 2001; Breckenridge et al., 2008; Jagasia et al., 2005; Lee et al., 2004). Recent studies have shown that mitochondrial fragmentation is regulated by the translocation of dynamin-related protein 1 (Drp1) from the cytosol to the mitochondria, where it assembles to form spirals at division sites (Smirnova et al., 2001). Although the exact molecular mechanism is still not well studied, the activity of Drp1 is regulated by the phosphorylation and dephosphorylation of specific serine residues by protein kinases and phosphatases such as calcineurin and the PGAM5 (Wang et al., 2012; Chang et al., 2007). […]

The subject of a further test is HO-1. The test can be described thus: qRT-PCR of antioxidant response gene HO-1. Particulars: HT22, 10 mM glutamate 16 hrs, relative to glutamate only. As for the experimental part: HT22 cells were seeded onto cell culture treated 6-well plates at 3.0×10^5 cells per well in 2 mL of medium and maintained at 37° C. in 5% CO2 overnight prior to the initiation of experimental treatments. Cells were subsequently treated with 1 mL of medium containing glutamate (monosodium glutamate, Sigma-Aldritch, 1 M stock concentration in media, to achieve a final concentration of 10 mM) plus inhibitors (stock in DMSO) and maintained at 37° C. in 5% CO2. After 16 hrs, the media was collected and the cells harvested by trypsanization. After centrifugation, pelleted cells were washed with cold Hanks' Balanced Salt Solution (HBSS Ca^2+/Mg^2+ Free; Invitrogen; KCl 5.33 mM, KH2PO4 0.441 mM, NaHCO3 4.17 mM, NaCl 137.93 mM, Na2HPO4 0.338 mM, D-Glucose 5.56 mM), qRT-PCR was used to detect HO-1, NQO-1, and PGAM5 mRNAs in the HT22 cells. […] Therefore β2-microglobulin was used as a reference gene (Barrionuevo and Burggren, 1999). HT22 cells were cultured as described for 16 hrs. Total RNAs were extracted using the RNEasy kit (Qiagen), and transcripts of interest were amplified by PCR using the 1-step Syber Green qRT-PCR kit (Quanta) and the following specific primers (Harvard PrimerBank; Integrated DNA Technologies): HO-1, 5′-[…]-3′ (SEQ ID NO:1) and 5′-[…]-3′ (SEQ ID NO:2); PGAM5, 5′-[…]-3′ (SEQ ID NO:3) and 5′-[…]-3′ (SEQ ID NO:4); NQO-1, 5′-[…]-3′ (SEQ ID NO:5) and 5′-[…]-3′ (SEQ ID NO:6); and β2-microglobulin, 5′-[…]-3′ (SEQ ID NO:7) and 5′-[…]-3′ (SEQ ID NO:8). Linearity of the primers was verified before use, and fold changes were calculated as previously described using the Livak method (Barrionuevo and Burggren, 1999).
On the technique in general: In qPCR the cycle at which signal appears reflects the starting amount.

Where [3] appears, read: Mus musculus, HT-22, 10 mM glutamate.

Where two headings read alike, the source gives them in different places.

As to `C#CCNC1=CC(=O)c2ccccc2C1=O` [Compound 2h, 2-(prop-2-yn-1-ylamino)naphthalene-1,4-dione], the EC50 with HT22 cells [1] (setting [3]) is 120 nM.
Take `O=C1C=C(NCc2ccccc2)C(=O)c2ccccc21` [Compound 2j, 2-(benzylamino)naphthalene-1,4-dione]: the EC50 with HT22 cells [1] (setting [3]) amounted to 88 nM. Moreover, in the test on HT22 cells [2], the “protection from t-BuOOH induced cell death” value is “capable of protecting HT22 cells from t-BuOOH”. For the same compound, in the test with HO-1, the HO-1 gene expression entry is “significantly decreased HO-1 expression”.
As for `O=C1C=C(NCc2cccc(Cl)c2)C(=O)c2ccccc21` [Compound 2q, 2-((3-chlorobenzyl)amino)naphthalene-1,4-dione], in the test on HT22 cells [1] (10 mM glutamate), the “fold increase in PC50 potency over VK2” value is “more than 10 fold” and the “fold increase in PC50 potency over compound 2j” value is recorded as about 3 fold. For the same compound, the EC50 in the test with HT22 cells [1] (setting [3]) is 31 nM. Further, in the test on HT22 cells [2], the “protection from t-BuOOH induced cell death” value is given as “capable of protecting HT22 cells from t-BuOOH”. Moreover, the HO-1 gene expression entry in the test on HO-1 is reported as “significantly decreased HO-1 expression”.
On to `CC1=CC(=O)c2ccccc2C1=O` [VK3, menadione, reference compound], for which, in the test with HT22 cells [1] (10 mM glutamate), the EC50 was 797 nM.
menaquinones [VK2, reference compound]: the EC50 in the test on HT22 cells [1] (10 mM glutamate) was determined as 432 nM. Moreover, the “protection from oxidative cell death” value in the test with HT22 cells [1] (glutamate) was “rescued HT22 cells from oxidative cell death”. Besides, the “protection from t-BuOOH induced cell death” value with HT22 cells [2] was “capable of protecting HT22 cells from t-BuOOH”. Further, the HO-1 gene expression result in the test on HO-1 is “significantly decreased HO-1 expression”.

Source of the values: patent publication US10391070B2, “Compositions and methods for treating neurological diseases or injury” (MUSC FOUNDATION FOR RESEARCH DEVELOPMENT, priority 2012, dated 2019).
